In patent US20070128217A1 (priority 2003, published 2007):

What was measured:
[1] = test system: recombinant human anti-SARS-CoV antibody 03-018; format: binding; parameters: Binding of antibody 03-018 to linear peptides of the N protein of SARS-CoV Urbani / Binding of antibody 03-018 to looped/cyclic peptides of the N protein of SARS-CoV Urbani: unit not given here
[2] = test system: antibodies in sera from SARS patients (sera 1a, 1b, 2, 6, 37, 62, London, SARS-yellow, SARS-green); format: binding, human; parameters: Binding of serum 6 to linear peptides of protein X1 of SARS-CoV Urbani / Binding of serum 37 to linear peptides of protein X1 of SARS-CoV Urbani / Binding of serum 6 to looped/cyclic peptide (PEPSCAN-ELISA) / Binding of serum 37 to looped/cyclic peptide (PEPSCAN-ELISA) / Binding of serum 37 to looped/cyclic peptides of protein X1 of SARS-CoV Urbani / Binding of serum 6 to linear peptides of protein X2 / Binding of serum 37 to linear peptides of protein X2 / Binding of serum 37 to looped/cyclic peptides of protein X2 of SARS-CoV Urbani / Binding of serum 6 to linear peptides of protein M of SARS-CoV Urbani / Binding of serum 37 to linear peptides of protein M of SARS-CoV Urbani / Binding of serum 6 to looped/cyclic peptides of protein M of SARS-CoV Urbani / Binding of serum 37 to looped/cyclic peptides of protein M of SARS-CoV Urbani / Binding of serum 6 to linear peptides of protein X3 of SARS-CoV Urbani / Binding of serum 37 to linear peptides of protein X3 of SARS-CoV Urbani / Binding of serum 37 to looped/cyclic peptides of protein X3 of SARS-CoV Urbani / Binding of serum 6 to linear peptides of protein X4 of SARS-CoV Urbani / Binding of serum 37 to linear peptides of protein X4 of SARS-CoV Urbani / Binding of serum 37 to looped/cyclic peptides of protein X4 of SARS-CoV Urbani / Binding of serum 6 to linear peptides of protein X5 of SARS-CoV Urbani / Binding of serum 37 to linear peptides of protein X5 of SARS-CoV Urbani / Binding of serum 37 to looped/cyclic peptides of protein X5 of SARS-CoV Urbani / Binding of serum 6 to linear peptides of protein N of SARS-CoV Urbani / Binding of serum 37 to linear peptides of protein N of SARS-CoV Urbani / Binding of serum 6 to linear peptide (PEPSCAN-ELISA) / Binding of serum 1a to looped/cyclic peptides of protein N of SARS-CoV Urbani / Binding of serum 1b to looped/cyclic peptides of protein N of SARS-CoV Urbani / Binding of serum 2 to looped/cyclic peptides of protein N of SARS-CoV Urbani / Binding of serum 6 to looped/cyclic peptides of protein N of SARS-CoV Urbani / Binding of serum 37 to looped/cyclic peptides of protein N of SARS-CoV Urbani / Binding of serum 62 to looped/cyclic peptides of protein N of SARS-CoV Urbani / Binding of serum London to looped/cyclic peptides of protein N of SARS-CoV Urbani / Binding of serum SARS-green to looped/cyclic peptides of protein N of SARS-CoV Urbani: unit not given here
[3] = test system: control sera (pooled serum of ten healthy LUMC hospital workers; commercial negative donor pooled serum from the Dutch bloodbank); format: binding, human; parameters: Binding of Control serum LUMC to linear peptides / Binding of Control serum Blood-bank to linear peptides / Binding of Control serum LUMC to looped peptides / Binding of Control Serum Blood-Bank to Looped peptides / Binding of Control serum LUMC to linear peptides of the protein M of SARS-CoV Urbani / Binding of Control serum Blood-bank to linear peptides of the protein M of SARS-CoV Urbani / Binding of Control serum LUMC to looped peptides of the protein M of SARS-CoV Urbani / Binding of Control Serum Blood-Bank to Looped peptides of the protein M of SARS-CoV Urbani: unit not given here
[4] = test system: rabbit serum obtained by immunizing a rabbit with the SARS-CoV strain Frankfurt 1; format: binding; parameters: Binding of a rabbit serum to linear peptides / Binding of a rabbit serum to looped peptides / Rabbit serum linear peptides / Rabbit serum looped peptides / Binding of a rabbit serum to linear peptides of protein N of SARS-CoV Urbani (Rabbit serum linear peptides) / Binding of a rabbit serum to looped/cyclic peptides of protein N of SARS-CoV Urbani (Rabbit serum looped peptides): unit not given here

Sequence	Binding of antibody 03-018 to linear peptides of the N protein of SARS-CoV Urbani [1]	Binding of antibody 03-018 to looped/cyclic peptides of the N protein of SARS-CoV Urbani [1]	Binding of serum 1a to linear peptides of protein N of SARS-CoV Urbani [2]	Binding of serum 1a to looped/cyclic peptides of protein N of SARS-CoV Urbani [2]	Binding of serum 1b to linear peptides of protein N of SARS-CoV Urbani [2]	Binding of serum 1b to looped/cyclic peptides of protein N of SARS-CoV Urbani [2]	Binding of serum 2 to linear peptides of protein N of SARS-CoV Urbani [2]	Binding of serum 2 to looped/cyclic peptides of protein N of SARS-CoV Urbani [2]	Binding of serum 6 to linear peptides of protein N of SARS-CoV Urbani [2]	Binding of serum 6 to looped/cyclic peptides of protein N of SARS-CoV Urbani [2]	Binding of serum 37 to linear peptides of protein N of SARS-CoV Urbani [2]	Binding of serum 37 to looped/cyclic peptides of protein N of SARS-CoV Urbani [2]	Binding of serum 62 to linear peptides of protein N of SARS-CoV Urbani [2]	Binding of serum 62 to looped/cyclic peptides of protein N of SARS-CoV Urbani [2]	Binding of serum London to linear peptides of protein N of SARS-CoV Urbani [2]	Binding of serum London to looped/cyclic peptides of protein N of SARS-CoV Urbani [2]	Binding of serum SARS-green to looped/cyclic peptides of protein N of SARS-CoV Urbani [2]	Binding of serum SARS-yellow to looped/cyclic peptides of protein N of SARS-CoV Urbani [2]	Binding of a rabbit serum to linear peptides of protein N of SARS-CoV Urbani (Rabbit serum linear peptides) [4]	Binding of a rabbit serum to looped/cyclic peptides of protein N of SARS-CoV Urbani (Rabbit serum looped peptides) [4]	further results
DFSRQLQNSMSGASA	0.1	0.2	0.2	0.3	0.1	0.1	0.2	0.4	0.2	0.2	0.7	0.4	0.6	0.2	0.5	0.3	0.4	0.2	0.5	0.6	Binding of serum SARS-green to linear peptides of protein N of SARS-CoV Urbani [2]: 0.3; Binding of serum SARS-yellow to linear peptides of protein N of SARS-CoV Urbani [2]: 0.5; Control Serum Blood-Bank Looped peptides [3]: 0.5; Control serum Blood-bank linear peptides [3]: 0.6; Control serum LUMC linear peptides [3]: 0.6; Control serum LUMC looped peptides [3]: 0.4
RLNQLESKVSGKGQQ	0.1	0.2	–	0.4	–	0.3	–	0.5	–	0.4	–	0.6	–	0.7	–	0.4	0.4	0.8	0.2	0.6	Binding of serum 1a to linear peptide (PEPSCAN-ELISA) [2]: 0.3; Binding of serum 1b to linear peptide (PEPSCAN-ELISA) [2]: 0.2; Binding of serum 2 to linear peptide (PEPSCAN-ELISA) [2]: 0.3; Binding of serum 6 to linear peptide (PEPSCAN-ELISA) [2]: 0.2; Binding of serum 37 to linear peptide (PEPSCAN-ELISA) [2]: 0.7; Binding of serum 62 to linear peptide (PEPSCAN-ELISA) [2]: 0.9; Binding of serum London to linear peptide (PEPSCAN-ELISA) [2]: 0.6; Binding of serum SARS-green to linear peptide (PEPSCAN-ELISA) [2]: 0.4; Binding of serum SARS-yellow to linear peptide (PEPSCAN-ELISA) [2]: 0.7; Binding of Control Serum Blood-Bank to Looped peptides [3]: 0.6; Binding of Control serum Blood-bank to linear peptides [3]: 0.8; Binding of Control serum LUMC to linear peptides [3]: 0.7; Binding of Control serum LUMC to looped peptides [3]: 0.7
DMDDFSRQLQNSMSG	0.1	0.2	0.2	0.3	0.2	0.1	0.2	0.3	0.3	0.0	0.8	0.4	0.7	0.2	0.7	0.2	0.0	0.2	0.2	0.4	Binding of serum SARS-green to linear peptides of protein N of SARS-CoV Urbani [2]: 0.3; Binding of serum SARS-yellow to linear peptides of protein N of SARS-CoV Urbani [2]: 0.7; Control Serum Blood-Bank Looped peptides [3]: 0.4; Control serum Blood-bank linear peptides [3]: 0.8; Control serum LUMC linear peptides [3]: 0.6; Control serum LUMC looped peptides [3]: 0.3
